Assay [1] is described as follows: Cytotoxicity against human MKN1 cells. It counts as functional, cell-based. As to conditions: MKN-1.
Assay [2] has as its system MKN-7. In words: Cytotoxicity against human MKN7 cells. It counts as functional, cell-based.
For assay [3], the system named is MKN-45. In words: Cytotoxicity against human MKN45 cells. Type of assay: functional, cell-based.
Assay [4] concerns KM12. In words: Cytotoxicity against human KM12 cells. Type of assay: functional, cell-based.
For assay [5], the system named is OVCAR-3. In words: Cytotoxicity against human OVCAR-3 cells. It counts as functional, cell-based.
Assay [6] has as its system SNB-75. In words: Cytotoxicity against human SNB75 cells. Type of assay: functional, cell-based.
In assay [7] the test system is SF-539. In words: Cytotoxicity against human SF539 cells. Type of assay: functional, cell-based.
The test system of assay [8] is OVCAR-5. In words: Cytotoxicity against human OVCAR5 cells. It counts as functional, cell-based.
In assay [9] the test system is A549. In words: Cytotoxicity against human A549 cells. Type of assay: functional, cell-based. To be noted: Homo sapiens, A549.
In assay [10] the test system is HCT-15. The assay can be described thus: Cytotoxicity against human HCT15 cells. It counts as functional, cell-based.
Assay [11] has as its system MDA-MB-231. In words: Cytotoxicity against human MDA-MB-231 cells. Type of assay: functional, cell-based.
For assay [12], the system named is SF-268. The assay can be described thus: Cytotoxicity against human SF268 cells. It counts as functional, cell-based. To be noted: Homo sapiens, SF-268; read-out: IC50.
Assay [13] concerns MKN-28. The assay can be described thus: Cytotoxicity against human MKN28 cells. Type of assay: functional, cell-based.
Assay [14] concerns NCI-H23. The assay can be described thus: Cytotoxicity against human NCI-H23 cells. Type of assay: functional, cell-based.
In assay [15] the test system is ACHN. In words: Cytotoxicity against human ACHN cells. Type of assay: functional, cell-based.
Assay [16] deals with HCT-116. In words: Cytotoxicity against human HCT116 cells. Type of assay: functional, cell-based.
Assay [17] deals with HT-29. In words: Cytotoxicity against human HT29 cells. Type of assay: functional, cell-based. As to conditions: Homo sapiens, HT-29.
Assay [18] in a line: Cytotoxicity against human BSY1 cells. It counts as functional, cell-based. To be noted: BSY-1.
For assay [19], the system named is DMS-114. In words: Cytotoxicity against human DMS114 cells. It counts as functional, cell-based.
For assay [20], the system named is MKN-74. The assay can be described thus: Cytotoxicity against human MKN74 cells. Type of assay: functional, cell-based.
A short description of assay [21]: Cytotoxicity against human HBC4 cells. It counts as functional, cell-based.
Assay [22] has as its system NCI-H522. The assay can be described thus: Cytotoxicity against human NCI-H522 cells. It counts as functional, cell-based.
In assay [23] the test system is SK-OV-3. In words: Cytotoxicity against human SK-OV-3 cells. Type of assay: functional, cell-based.
Assay [24] relates to NCI-H460. In words: Cytotoxicity against human NCI-H460 cells. It counts as functional, cell-based. As to conditions: Homo sapiens, NCI-H460.
Assay [25] deals with LOX IMVI. The assay can be described thus: Cytotoxicity against human LOXI MVI cells. It counts as functional, cell-based.
In assay [26] the test system is OVCAR-8. The assay can be described thus: Cytotoxicity against human OVCAR8 cells. Type of assay: functional, cell-based.
In assay [27] the test system is SNB-78. The assay can be described thus: Cytotoxicity against human SNB78 cells. Type of assay: functional, cell-based.
For assay [28], the system named is HCC 2998. The assay can be described thus: Cytotoxicity against human HCC2998 cells. It counts as functional, cell-based.
Assay [29] relates to PC-3. In words: Cytotoxicity against human PC3 cells. It counts as functional, cell-based. To be noted: Homo sapiens, PC-3.
For assay [30], the system named is DU-145. The assay can be described thus: Cytotoxicity against human DU145 cells. Type of assay: functional, cell-based. To be noted: Homo sapiens, DU-145.
Assay [31] relates to MCF7. The assay can be described thus: Cytotoxicity against human MCF7 cells. It counts as functional, cell-based. To be noted: Homo sapiens, MCF7.
Assay [32] has as its system U-251. The assay can be described thus: Cytotoxicity against human U251 cells. It counts as functional, cell-based.
Assay [33] relates to NCI-H226. The assay can be described thus: Cytotoxicity against human NCI-H226 cells. It counts as functional, cell-based.
The test system of assay [34] is OVCAR-4. The assay can be described thus: Cytotoxicity against human OVCAR4 cells. Type of assay: functional, cell-based.
In assay [35] the test system is St-4. In words: Cytotoxicity against human ST4 cells. Type of assay: functional, cell-based.
Assay [36] relates to SF-295. The assay can be described thus: Cytotoxicity against human SF295 cells. Type of assay: functional, cell-based.
Assay [37] is described as follows: Cytotoxicity against human HBC5 cells. It counts as functional, cell-based.
The nature of assay [38]: Cytotoxicity against human RXF63IL cells. It counts as functional, cell-based.
Assay [39] concerns DMS-273. The assay can be described thus: Cytotoxicity against human DMS273 cells. It counts as functional, cell-based.
Assay [40] in a line: Cytotoxicity against human Hepa59T/VGH cells. Type of assay: functional. As to conditions: HEPA 59T/VGH, read-out: ED50 (the source's name).
Assay [41] addresses Prostaglandin G/H synthase 1 (Homo sapiens, UniProt P23219). In words: Inhibition of cyclooxygenase-1.
In assay [42] the target is Prostaglandin G/H synthase 2 (Homo sapiens, UniProt P35354). The assay can be described thus: Inhibition of cyclooxygenase-2.
A short description of assay [43]: Inhibition of L-glutamate transporter.
Assay [44] concerns the target Sodium-dependent dopamine transporter (Homo sapiens, UniProt Q01959). In words: Inhibition of dopamine uptake at DAT.
The target in assay [45] is Sodium-dependent serotonin transporter (Homo sapiens, UniProt P31645). In words: Inhibition of serotonin transporter.
Assay [46] addresses Sodium-dependent noradrenaline transporter (Homo sapiens, UniProt P23975). In words: Inhibition of noradrenaline transporter.
The nature of assay [47]: Inhibition of gamma aminobutyric acid transporter.
Assay [48] can be described thus: Cytotoxicity against human Fem-X cells. Type of assay: functional, cell-based.
Assay [49] deals with K562. In words: Cytotoxicity against human K562 cells. It counts as functional, cell-based.
The test system of assay [50] is PBMC. In words: Cytotoxicity against human PHA-activated PBMC cells. Type of assay: cell-based.
The test system of assay [51] is PBMC. In words: Cytotoxicity against human PBMC cells. Type of assay: cell-based.
Assay [52] concerns HeLa. The assay can be described thus: Cytotoxicity against human HeLa cells. It counts as functional, cell-based.

Converted amounts (≈) assume the structure as drawn.

Sequence of Sodium-dependent dopamine transporter (Q01959 whole entry): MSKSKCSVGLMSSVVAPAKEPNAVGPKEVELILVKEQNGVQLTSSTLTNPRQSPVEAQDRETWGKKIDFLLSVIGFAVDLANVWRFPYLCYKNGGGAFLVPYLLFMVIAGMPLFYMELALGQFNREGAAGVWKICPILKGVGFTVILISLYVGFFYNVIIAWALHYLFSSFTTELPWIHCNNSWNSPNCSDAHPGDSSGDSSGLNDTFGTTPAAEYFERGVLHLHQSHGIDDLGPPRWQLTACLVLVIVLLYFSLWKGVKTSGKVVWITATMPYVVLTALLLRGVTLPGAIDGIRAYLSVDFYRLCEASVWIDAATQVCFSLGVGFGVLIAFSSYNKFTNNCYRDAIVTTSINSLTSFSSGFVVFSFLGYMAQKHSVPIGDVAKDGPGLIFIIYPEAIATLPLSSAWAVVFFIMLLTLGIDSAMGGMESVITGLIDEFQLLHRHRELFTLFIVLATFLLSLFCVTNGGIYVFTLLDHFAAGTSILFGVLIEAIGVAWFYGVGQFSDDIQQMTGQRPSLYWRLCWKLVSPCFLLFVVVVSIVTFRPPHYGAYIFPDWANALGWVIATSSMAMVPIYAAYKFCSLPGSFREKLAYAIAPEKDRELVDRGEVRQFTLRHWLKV
Sequence of Prostaglandin G/H synthase 2 (P35354 whole entry): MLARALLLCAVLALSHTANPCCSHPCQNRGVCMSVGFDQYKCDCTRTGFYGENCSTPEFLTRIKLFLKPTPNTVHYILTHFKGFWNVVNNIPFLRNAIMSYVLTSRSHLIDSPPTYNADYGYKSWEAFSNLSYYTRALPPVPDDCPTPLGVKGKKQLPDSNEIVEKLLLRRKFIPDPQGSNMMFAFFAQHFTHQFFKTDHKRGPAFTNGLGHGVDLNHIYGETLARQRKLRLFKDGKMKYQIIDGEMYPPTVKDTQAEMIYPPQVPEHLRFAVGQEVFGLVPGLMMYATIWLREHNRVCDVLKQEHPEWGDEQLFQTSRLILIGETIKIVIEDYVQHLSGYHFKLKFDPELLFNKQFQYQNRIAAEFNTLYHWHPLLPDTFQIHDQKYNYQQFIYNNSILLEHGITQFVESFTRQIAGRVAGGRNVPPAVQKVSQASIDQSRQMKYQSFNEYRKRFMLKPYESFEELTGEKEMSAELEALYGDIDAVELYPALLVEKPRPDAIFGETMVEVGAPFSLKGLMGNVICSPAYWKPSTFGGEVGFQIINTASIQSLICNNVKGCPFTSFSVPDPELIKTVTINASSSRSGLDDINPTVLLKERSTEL
Sequence of Sodium-dependent serotonin transporter (P31645 whole entry): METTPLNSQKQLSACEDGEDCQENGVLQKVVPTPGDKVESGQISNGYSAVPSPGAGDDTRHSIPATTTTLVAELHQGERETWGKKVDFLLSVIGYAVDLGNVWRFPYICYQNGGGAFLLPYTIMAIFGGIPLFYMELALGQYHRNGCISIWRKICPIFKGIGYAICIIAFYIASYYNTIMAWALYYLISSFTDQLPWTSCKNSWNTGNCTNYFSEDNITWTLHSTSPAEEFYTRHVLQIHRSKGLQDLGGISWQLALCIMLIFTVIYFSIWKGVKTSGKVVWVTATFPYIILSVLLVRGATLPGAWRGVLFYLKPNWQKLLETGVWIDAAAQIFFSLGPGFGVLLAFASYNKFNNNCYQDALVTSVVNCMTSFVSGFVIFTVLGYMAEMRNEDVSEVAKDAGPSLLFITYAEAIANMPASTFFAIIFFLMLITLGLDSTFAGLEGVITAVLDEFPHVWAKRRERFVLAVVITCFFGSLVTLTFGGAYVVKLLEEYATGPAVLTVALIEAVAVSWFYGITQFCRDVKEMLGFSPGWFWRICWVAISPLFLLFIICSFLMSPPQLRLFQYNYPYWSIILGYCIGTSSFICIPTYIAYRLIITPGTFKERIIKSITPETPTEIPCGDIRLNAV
Sequence of Sodium-dependent noradrenaline transporter (P23975 whole entry): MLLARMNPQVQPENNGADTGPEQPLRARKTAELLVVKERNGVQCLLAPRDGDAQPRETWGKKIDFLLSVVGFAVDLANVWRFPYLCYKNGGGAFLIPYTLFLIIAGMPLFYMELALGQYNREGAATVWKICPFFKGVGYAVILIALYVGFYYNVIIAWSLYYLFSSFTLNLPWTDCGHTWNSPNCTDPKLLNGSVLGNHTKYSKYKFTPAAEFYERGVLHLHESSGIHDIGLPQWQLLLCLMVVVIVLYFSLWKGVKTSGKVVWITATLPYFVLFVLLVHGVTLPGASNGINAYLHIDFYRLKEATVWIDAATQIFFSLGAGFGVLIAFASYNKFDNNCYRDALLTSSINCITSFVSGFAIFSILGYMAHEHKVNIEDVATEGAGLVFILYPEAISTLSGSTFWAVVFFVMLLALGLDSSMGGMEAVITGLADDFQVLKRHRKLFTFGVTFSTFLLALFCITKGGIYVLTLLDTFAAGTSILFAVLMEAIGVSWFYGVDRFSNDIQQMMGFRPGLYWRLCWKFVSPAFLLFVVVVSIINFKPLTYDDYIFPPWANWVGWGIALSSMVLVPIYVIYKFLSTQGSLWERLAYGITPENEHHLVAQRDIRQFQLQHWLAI
Sequence of Prostaglandin G/H synthase 1 (P23219 whole entry): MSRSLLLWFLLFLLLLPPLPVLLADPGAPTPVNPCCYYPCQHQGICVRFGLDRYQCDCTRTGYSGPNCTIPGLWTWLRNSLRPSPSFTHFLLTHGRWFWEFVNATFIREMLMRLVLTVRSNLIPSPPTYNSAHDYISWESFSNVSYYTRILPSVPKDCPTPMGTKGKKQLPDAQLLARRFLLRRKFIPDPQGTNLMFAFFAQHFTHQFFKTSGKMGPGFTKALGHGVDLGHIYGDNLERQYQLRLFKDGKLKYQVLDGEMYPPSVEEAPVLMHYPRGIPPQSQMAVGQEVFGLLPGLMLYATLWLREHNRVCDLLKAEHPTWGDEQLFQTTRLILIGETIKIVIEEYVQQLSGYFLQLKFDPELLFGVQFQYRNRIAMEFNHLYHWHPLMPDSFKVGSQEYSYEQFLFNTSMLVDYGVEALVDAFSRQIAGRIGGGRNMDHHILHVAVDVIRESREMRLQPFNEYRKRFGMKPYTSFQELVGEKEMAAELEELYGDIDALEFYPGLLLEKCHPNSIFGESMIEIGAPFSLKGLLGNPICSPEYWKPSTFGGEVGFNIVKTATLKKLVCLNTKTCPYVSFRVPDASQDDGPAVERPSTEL

As for `C=C(C)[C@@H](C)/C=C/[C@@H](C)[C@H]1CC[C@@H]2[C@]1(C)CC=C1[C@]23C=C[C@]2(C[C@@H](O)CC[C@]12C)OO3`, the IC50 in [1] worked out at 0.42 µg/mL (≈ 0.989 µM); in assay [2] it was 0.48 µg/mL (≈ 1.13 µM); in assay [3], 0.54 µg/mL (≈ 1.27 µM); in [4], 0.6 µg/mL (≈ 1.41 µM); in assay [5], 0.19 µg/mL (≈ 0.447 µM); in assay [6], 2.16 µg/mL (≈ 5.09 µM). Further, the IC50 was determined as 0.84 µg/mL (≈ 1.98 µM) in [7]; 0.54 µg/mL (≈ 1.27 µM) in assay [8]; 0.96 µg/mL (≈ 2.26 µM) in [9]; 0.75 µg/mL (≈ 1.77 µM) in [10]; 1.26 µg/mL (≈ 2.97 µM) in assay [11]; 1.02 µg/mL (≈ 2.4 µM) in assay [12]. The IC50 is 0.84 µg/mL (≈ 1.98 µM) in [13]; 0.54 µg/mL (≈ 1.27 µM) in assay [14]; 0.51 µg/mL (≈ 1.2 µM) in [15]; 0.48 µg/mL (≈ 1.13 µM) in assay [16]; 0.57 µg/mL (≈ 1.34 µM) in assay [17]; 0.6 µg/mL (≈ 1.41 µM) in assay [18]. For the same compound, the IC50 came to 0.48 µg/mL (≈ 1.13 µM) in assay [19]; 0.54 µg/mL (≈ 1.27 µM) in assay [20]; 0.85 µg/mL (≈ 2 µM) in assay [21]; 0.57 µg/mL (≈ 1.34 µM) in assay [22]; 0.81 µg/mL (≈ 1.91 µM) in [23]; 0.61 µg/mL (≈ 1.44 µM) in assay [24]. The IC50 in [25] amounted to 0.6 µg/mL (≈ 1.41 µM); in [26], 0.22 µg/mL (≈ 0.518 µM); in assay [27], 1.17 µg/mL (≈ 2.76 µM); in assay [28], 0.57 µg/mL (≈ 1.34 µM); in [29], 0.57 µg/mL (≈ 1.34 µM); in [30], 0.54 µg/mL (≈ 1.27 µM). Also, the IC50 came out at 0.36 µg/mL (≈ 0.848 µM) in assay [31]; 0.63 µg/mL (≈ 1.48 µM) in assay [32]; 0.63 µg/mL (≈ 1.48 µM) in assay [33]; 0.6 µg/mL (≈ 1.41 µM) in assay [34]; 0.69 µg/mL (≈ 1.62 µM) in assay [35]; 0.75 µg/mL (≈ 1.77 µM) in assay [36]. In addition, the results for the IC50 in assay [37], in [38] and in assay [39] were 0.96 µg/mL (≈ 2.26 µM), 0.72 µg/mL (≈ 1.7 µM) and 0.54 µg/mL (≈ 1.27 µM), respectively.

With `CC(C)[C@]12C=C3[C@](C)(O)CC[C@]3(OO1)[C@@H](C)CC2` [PEROXYGIBBEROL], the EC50 in assay [40] is 8.2 µg/mL (≈ 32.5 µM).

Turning to `C=C[C@@H]1[C@@H](O)C[C@@H]2[C@]3(CC[C@]4(C)[C@@H]([C@H](C)CCC(OO)C(=C)C)CC[C@@]24C)C[C@]13CCC(=O)OC` (some centres not stated), the IC50 turned out to be 43.7 µg in [41] and 4.7 µg in [42].

Take `CC(C)=CCC[C@]1(C)[C@@H](CC=C(C)C)C[C@@]2(CC=C(C)C)C(=O)[C@@](CC=C(C)C)(CC3=C[C@@H]4[C@@H](C(C)C)CC[C@@](C)(OO)[C@H]4CC3)C(=O)[C@]1(C(=O)C(C)C)C2=O` [HYDROPEROXYCADIFORIN]: the IC50 in assay [43] is 0.5 µg/mL (≈ 0.647 µM); in [44] it was 64.7 nM; in assay [45], 64.7 nM; in [46], 64.7 nM; in assay [47] it was 0.05 µg/mL (≈ 0.0647 µM).

As for `C=C1C(=O)O[C@H]2C1C[C@@H](OC(C)=O)[C@@](C)(O)[C@@]13C=C[C@@](C)(OO1)[C@H]23` (some centres not stated) [APRESSIN], the IC50 in assay [48] turned out to be 5.27 µg/mL (≈ 15.7 µM); in assay [49], 4.44 µg/mL (≈ 13.2 µM); in [50], 8.78 µg/mL (≈ 26.1 µM); in assay [51], 15.9 µg/mL (≈ 47.2 µM); in assay [52], 7.36 µg/mL (≈ 21.9 µM).

The values are drawn from ChEMBL document CHEMBL1149799, “Bioactive peroxides as potential therapeutic agents” (Eur J Med Chem, 2008).
